Some test systems named below: DLD-1 colon; DMS 273 small cell lung; KM20L2 colon; XF 498 CNS; P388 leukemia; P388/ADR leukemia; SN12K1 renal; LXFL 529 NSCLC.
Holding throughout (experiment): NCI tumour cell line growth inhibition, 48 h

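Method: 48-hour compound exposure of cells in 96-well plates, five concentrations, linear interpolation of endpoints. TGI denotes the concentration required for complete inhibition of growth.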 Some results are limits rather than exact numbers.

As for `On1c(-c2ccccc2)c(-c2ccccc2N2CCCC2)c2ccccc21`, the TGI with DLD-1 colon, in the experiment on DMS 273 small cell lung, in the experiment with KM20L2 colon and in the experiment with XF 498 CNS was greater than 100 µM in each case.

In the case of `CCCCCCCCCCCC[S+](C)C`, the TGI was 25.9 µM in the experiment on DLD-1 colon; 17.2 µM with DMS 273 small cell lung; 20.9 µM in the experiment with KM20L2 colon; 3.1 µM in the experiment with P388 leukemia; greater than 100 µM with P388/ADR leukemia; 18.8 µM in the experiment with SN12K1 renal. In addition, in the experiment on XF 498 CNS, the TGI amounted to 6.71 µM.

On to `CCCCCCCCCCCCCCCCNc1cccc2ccccc12`, for which the TGI in the experiment on DLD-1 colon, with DMS 273 small cell lung, in the experiment on KM20L2 colon and in the experiment on LXFL 529 NSCLC was greater than 100 µM each time.

For `CCOC(=O)C1S/C(=N\C(=N)N[N+](=O)[O-])N=C1C` (stereo not drawn), the TGI with DLD-1 colon, with KM20L2 colon, in the experiment on LXFL 529 NSCLC and with XF 498 CNS was greater than 100 µM throughout.

As to `C[N+](C)([O-])CCOc1cc2c(c3ccccc13)-c1ccccc1C2=O`, the TGI in the experiment with DLD-1 colon was greater than 100 µM; in the experiment with DMS 273 small cell lung it was 43.9 µM; in the experiment on KM20L2 colon, greater than 63.5 µM; in the experiment on P388 leukemia, greater than 100 µM; in the experiment with P388/ADR leukemia, greater than 45.2 µM; with SN12K1 renal it was 37.8 µM. Moreover, the TGI in the experiment with XF 498 CNS is 37.9 µM.

In the case of `COc1cc2c(cc1OC)C(C(c1ccccc1)c1ccccc1)N(C)CC2` (stereo not drawn), the TGI in the experiment with DLD-1 colon was greater than 100 µM; with DMS 273 small cell lung it was greater than 100 µM; in the experiment with KM20L2 colon, greater than 73.7 µM; in the experiment with P388 leukemia, greater than 100 µM; in the experiment with P388/ADR leukemia it was greater than 100 µM; with SN12K1 renal, greater than 65.6 µM. The compound further had a TGI with XF 498 CNS of 97.8 µM.

`O=C(O)COc1ccccc1C(=O)Nc1ccccc1`: the TGI in the experiment with DLD-1 colon, with DMS 273 small cell lung, in the experiment with KM20L2 colon, in the experiment with LXFL 529 NSCLC and with XF 498 CNS was greater than 100 µM in each case.

On to `Cc1c2n(c(=O)[nH]c1=O)C1OC(CO)C(N=[N+]=[N-])C1O2` (stereo not drawn), for which the TGI in the experiment on DLD-1 colon, with DMS 273 small cell lung, in the experiment with KM20L2 colon and in the experiment with LXFL 529 NSCLC was greater than 100 µM in each case.

Regarding `CC1=Cc2cccc(C)c2C(=O)C1=O`, the TGI worked out at 4.32 µM with DLD-1 colon; 38.2 µM in the experiment with DMS 273 small cell lung; 35.5 µM in the experiment with KM20L2 colon; 5.27 µM in the experiment on LXFL 529 NSCLC; 9.65 µM with XF 498 CNS.

As for `Cc1c2cc[n+](C)c(C)c2cc2c1[nH]c1ccccc12`, the TGI in the experiment with DLD-1 colon is greater than 100 µM; with DMS 273 small cell lung, 39.1 µM; in the experiment on KM20L2 colon, 44.5 µM; with P388 leukemia it was 86.6 µM; in the experiment with P388/ADR leukemia, greater than 100 µM; in the experiment on SN12K1 renal, 16.8 µM.

These data come from PubChem BioAssay (NCI).
